Measured values from patent publication US20040235955A1, “Remedies for pruritus” (priority 2001, published 2004).

Experiments:
[1] = test system: pruritus induced by serotonin and PGE2; test: inhibitory effect against pruritus induced by serotonin and PGE2 (scratching count); type: in vivo; conditions: male ICR mice, scratching counted for 30 minutes, vs control
Description: The inhibitory effect against pruritus induced by serotonin and PGE2.
The back of male ICR mice (Charles River Japan Inc., 5 week-old) were sheared by hair clipper. 0.5% MC or the above test compound (100 mg/5 ml/kg or 300 mg/5 ml/kg) was administered orally. After 15 minutes or 1hour, serotonin (3 μg) or mixed solution of serotonin (3 μg) and PGE2 (1nmol) was injected intradermally (20 μl) into the. back of mouse. Scratching of the injected site or the perimeter by the behind paws of mouse was characterized as itch. The scratching was counted for 30 minutes from the injection.
0.5% MC [administration at 15 minutes before the induction]/serotonin (n=10) 0.5% MC [administration at 15 minutes before the induction]/serotonin+PGE2 (n=10) compound (1) [administration at 15 minutes before the induction]/serotonin+PGE2 (n=10) compound (2) [administration at 15 minutes before the
0.5% MC [administration at 1hour before the induction]/serotonin (n=10) 0.5% MC [administration at 1hour before the induction]/serotonin+PGE2 (n=10) compound (3) [administration at 1hour before the induction]/serotonin+PGE2 (n=10)

[2] = test system: model of allergic dermatitis; test: inhibitory effect against pruritus in a model of allergic dermatitis (DNFB hapten, scratching count); type: in vivo; conditions: male BALB/c mice; 0.15% DNFB weekly; 100 mg/5 ml/kg orally; scratching from 3 to 5 hours and from 24 to 26 hours after fifth application of hapten; vs control; FIG. 3
Description: The inhibitory effect against pruritus in a model of allergic dermatitis. The back of male BALB/c mice (Charles River Japan Inc., 6 week-old) were sheared by hair clipper. 0.15% dinitrofluorobenzene (DNFB) dissolved in mixed solution of acetone and olive oil as hapten was administered 50 μl by micro pipette in the back once a week. After forth applications, the scratching was measured from 3 to 5 hours and from 24 to 26 hours and mice were divided to each group referring the scratch data. 0.5% MC or the test compound (100 mg/5 ml/kg) was administered orally forth every 30 minutes from 30 minutes before 3 and 24 hours, respectively after fifth application of hapten. The scratching was videotaped from 3 to 5 hours and from 24 to 26 hours, respectively, after fifth application of hapten. The scratching was counted and estimated.

[3] = 100 mg/5 ml/kg orally 15 minutes before intradermal serotonin (3 μg) + PGE2 (1 nmol), FIG. 1

For `CC(C)CC(C(=O)Nc1cc(C#N)ccc1Cc1ccccc1C(=O)[O-])c1cccc2ccccc12.[Na+]` (stereo not shown) [Compound (2), sodium 2-[4-cyano-2-[4-methyl-2-(1-naphthyl)pentanoylamino]phenylmethyl]benzoate], the “number of scratching in serotonin and PGE2-induced pruritus” value [1, 3] was “inhibited significantly against control”.

For `COc1ccc(Br)cc1S(=O)(=O)NC(=O)/C=C/c1ccccc1Cc1ccc2ccccc2c1` [Compound (3), (2E)-N-(5-bromo-2-methoxyphenylsulfonyl)-3-(2-(naphthalen-2-ylmethyl)phenyl) -2-propenamide], the “number of scratching in serotonin and PGE2-induced pruritus” value ([1]; 300 mg/5 ml/kg orally 1 hour before intradermal serotonin (3 μg) + PGE2 (1 nmol), FIG. 2) was “inhibited significantly against control”.

In the case of `O=C([O-])CCc1ccc(Cn2cccn2)cc1OCCc1ccc2ccccc2c1.[Na+]` [Compound (1), sodium 3-(2-(2-(naphthalen-2-yl)ethoxy)-4-(pyrazol-1-ylmethyl)phenyl)propanoate], the “number of scratching in serotonin and PGE2-induced pruritus” value [1, 3] was “inhibited significantly against control”.

`O=C(O)CCc1ccc(Cn2cccn2)cc1OCCc1ccc2ccccc2c1` [Compound (4), 3-(2-(2-(naphthalen-2-yl)ethoxy)-4-(pyrazol-1-ylmethyl)phenyl)propanoic acid] was tested, and the “number of scratching in allergic dermatitis model” value [2] was “inhibited significantly against control”.
